Reference: patent publication US12448369B2 (Edgewise Therapeutics, Inc., priority 2023, dated 2025)

These molecules were tested on Porcine atria myofibrils (atrial myosin ATPase) (assay: Myofibril ATPase assay, porcine atria myofibrils). Conditions: Y75 value (no ‡ mark); porcine atria myofibrils.
Format: biochemical
Summary of the method: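 Coupled PK-LDH readout, NADH loss at 340 nm, kinetic 75 min. Porcine atria myofibrils, pCa buffer (PIPES/CaCl2/EGTA, pH 7.0). Slopes (mAU/min) normalized to vehicle = 100%, 4-parameter fit; Y75 or Y125 reported.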

Row | SMILES | Atrial EC25 [µM]
1 | C[C@@H](NC(=O)C1(c2cc3c(F)c(F)ccc3[nH]c2=O)CC1)c1cnc(C#N)cn1 (single isomer, unassigned) [compound 4829] | 0.45
2 | Cc1c(CC(=O)N[C@@H](C)c2ncc(C#N)cn2)c(=O)[nH]c2ccc(C#N)cc12 (single isomer, unassigned) [compound 2028] | 100.00
3 | Cc1c(C(F)(F)C(=O)N[C@@H](C)c2cccc(C#N)n2)c(=O)[nH]c2ccc(F)cc12 (single isomer, unassigned) [compound 2566] | 100.00
4 | C[C@H](NC(=O)Cc1cc2cc(F)ccc2[nH]c1=O)c1ccc(C#N)cn1 [compound 1126] | 100.00
5 | Cc1c(CC(=O)N[C@H](C)c2ncc(C#N)cc2F)c(=O)[nH]c2ccc(F)c(C#N)c12 [compound 31] | 0.10
6 | C[C@@H](NC(=O)Cc1cc2cc(F)c(F)cc2[nH]c1=O)c1ncc(C#N)cn1 (single isomer, unassigned) [compound 2035] | 2.19
7 | CCc1c(CC(=O)N[C@H](C)c2ncc(C#N)cn2)c(=O)[nH]c2ccc(F)c(C)c12 (single isomer, unassigned) [compound 2001] | 0.33
8 | Cc1c(C2(C(=O)NC(C)c3cccc(C#N)n3)CC2)c(=O)[nH]c2ccc(F)cc12 (single isomer, unassigned) [Compound 2580] | 4.52
9 | Cc1cc(C#N)ccc1[C@H](C)NC(=O)Cc1c(O)c2cc(F)c(F)cc2[nH]c1=O [compound 1089] | 6.41
10 | Cc1c(CC(=O)N[C@H](C)c2ncc(C#N)cn2)c(=O)[nH]c2ccc(C#N)cc12 (single isomer, unassigned) [compound 2027] | 1.48
11 | C[C@H](NC(=O)C(F)(F)c1cc2cc(F)ccc2[nH]c1=O)c1nccc(C#N)n1 (single isomer, unassigned) [compound 2560] | 100.00
12 | Cc1cc([C@@H](C)NC(=O)Cc2c(C)c3c(C)c(F)ccc3[nH]c2=O)ncc1F (single isomer, unassigned) [compound 2076] | 100.00
13 | Cc1c(CC(=O)N[C@H](C)c2ccc(C#N)nn2)c(=O)[nH]c2ccc(F)cc12 [compound 1119] | 0.48
14 | Cc1c(C(F)(F)C(=O)N[C@@H](C)c2ncc(C#N)cc2F)c(=O)[nH]c2ccc(F)c(C#N)c12 (single isomer, unassigned) [compound 4836] | 0.17
15 | Cc1c(CC(=O)N[C@H](C)c2ccc(F)cn2)c(=O)[nH]c2cccc(F)c12 [compound 43] | 100.00

Each molecule was assayed against T1, Porcine ventricle myofibrils (ventricular myosin ATPase) (Sus scrofa, UniProt P79293) (assay: Myofibril ATPase assay, porcine ventricle myofibrils). Conditions: Y75 value (no ‡ mark); porcine ventricle myofibrils.
T1 construct: Myofibrils from porcine cardiac muscle was isolated from the left ventricle of Yucatan minipigs; tissue Exemplar Genetics; host or cells: left ventricle of Yucatan minipigs, myofibrils prepared in house
Format: biochemical, porcine (Yucatan minipigs)
Summary of the method: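 ATPase activity of porcine left-ventricle myofibrils (Yucatan minipig) was followed through PK-LDH coupling as NADH loss at 340 nm, read every 1.5-2 min for 75 min. Slopes were normalised to vehicle wells and fitted to a 4-parameter logistic model. Values are Y75, the concentration giving a 25% drop in activity, or Y125 for activators.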

T1 sequence (P79293 whole entry): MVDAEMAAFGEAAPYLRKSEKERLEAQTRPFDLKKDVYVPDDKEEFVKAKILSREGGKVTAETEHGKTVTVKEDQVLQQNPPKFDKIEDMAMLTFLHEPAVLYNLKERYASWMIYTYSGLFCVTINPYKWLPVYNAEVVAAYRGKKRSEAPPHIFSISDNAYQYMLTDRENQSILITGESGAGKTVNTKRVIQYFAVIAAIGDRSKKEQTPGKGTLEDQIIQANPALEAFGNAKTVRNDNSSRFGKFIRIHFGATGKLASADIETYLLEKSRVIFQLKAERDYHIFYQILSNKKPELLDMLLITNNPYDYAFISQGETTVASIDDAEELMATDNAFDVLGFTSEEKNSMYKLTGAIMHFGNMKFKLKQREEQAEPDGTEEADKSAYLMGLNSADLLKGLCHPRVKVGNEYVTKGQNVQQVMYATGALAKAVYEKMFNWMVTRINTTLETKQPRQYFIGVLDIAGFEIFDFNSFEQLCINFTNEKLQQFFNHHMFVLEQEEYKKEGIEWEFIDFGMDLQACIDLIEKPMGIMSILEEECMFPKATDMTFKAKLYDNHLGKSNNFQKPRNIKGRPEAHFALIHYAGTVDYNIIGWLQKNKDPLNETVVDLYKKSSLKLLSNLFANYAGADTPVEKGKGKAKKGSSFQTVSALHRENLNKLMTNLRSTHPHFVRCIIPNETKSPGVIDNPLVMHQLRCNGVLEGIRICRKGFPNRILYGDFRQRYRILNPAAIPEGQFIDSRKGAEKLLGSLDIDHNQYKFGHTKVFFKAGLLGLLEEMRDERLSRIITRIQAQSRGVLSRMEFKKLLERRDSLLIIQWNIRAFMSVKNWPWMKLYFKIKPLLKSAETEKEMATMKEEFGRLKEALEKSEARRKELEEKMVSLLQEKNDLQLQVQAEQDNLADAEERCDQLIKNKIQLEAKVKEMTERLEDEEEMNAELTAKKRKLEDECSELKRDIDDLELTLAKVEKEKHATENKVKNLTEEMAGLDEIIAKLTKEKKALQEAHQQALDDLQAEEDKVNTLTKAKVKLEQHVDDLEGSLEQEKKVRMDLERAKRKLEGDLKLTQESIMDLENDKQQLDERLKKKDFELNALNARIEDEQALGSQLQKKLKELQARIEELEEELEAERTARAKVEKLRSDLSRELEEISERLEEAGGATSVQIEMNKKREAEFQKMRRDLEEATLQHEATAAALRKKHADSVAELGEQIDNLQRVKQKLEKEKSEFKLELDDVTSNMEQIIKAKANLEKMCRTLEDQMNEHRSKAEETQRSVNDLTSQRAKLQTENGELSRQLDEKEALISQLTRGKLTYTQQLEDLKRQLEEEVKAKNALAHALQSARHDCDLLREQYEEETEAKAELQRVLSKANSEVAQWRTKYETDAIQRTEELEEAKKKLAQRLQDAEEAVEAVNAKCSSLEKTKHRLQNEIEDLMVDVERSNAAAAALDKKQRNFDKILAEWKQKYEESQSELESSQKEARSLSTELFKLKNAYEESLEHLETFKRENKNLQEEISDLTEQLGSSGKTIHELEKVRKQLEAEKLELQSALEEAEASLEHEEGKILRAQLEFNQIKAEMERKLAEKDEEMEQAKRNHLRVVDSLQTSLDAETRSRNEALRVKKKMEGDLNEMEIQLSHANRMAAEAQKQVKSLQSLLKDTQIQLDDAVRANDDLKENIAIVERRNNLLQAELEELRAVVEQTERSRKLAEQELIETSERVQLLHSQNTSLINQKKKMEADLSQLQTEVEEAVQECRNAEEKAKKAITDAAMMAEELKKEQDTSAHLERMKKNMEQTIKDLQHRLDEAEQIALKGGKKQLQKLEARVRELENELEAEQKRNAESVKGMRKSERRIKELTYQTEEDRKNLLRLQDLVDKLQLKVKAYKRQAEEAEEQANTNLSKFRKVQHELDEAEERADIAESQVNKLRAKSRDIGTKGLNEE

Row | SMILES | Ventricular EC25 [µM]
16 | C[C@@H](NC(=O)C1(c2cc3c(F)c(F)ccc3[nH]c2=O)CC1)c1cnc(C#N)cn1 (single isomer, unassigned) [compound 4829] | 6.13
17 | C[C@H](NC(=O)Cc1cc2cc(F)ccc2[nH]c1=O)c1ccc(C#N)cn1 [compound 1126] | 100.00
18 | Cc1c(CC(=O)N[C@H](C)c2ncc(C#N)cc2F)c(=O)[nH]c2ccc(F)c(C#N)c12 [compound 31] | 0.16
19 | C[C@@H](NC(=O)Cc1cc2cc(F)c(F)cc2[nH]c1=O)c1ncc(C#N)cn1 (single isomer, unassigned) [compound 2035] | 38.21
20 | CCc1c(CC(=O)N[C@H](C)c2ncc(C#N)cn2)c(=O)[nH]c2ccc(F)c(C)c12 (single isomer, unassigned) [compound 2001] | 0.49
21 | Cc1c(C2(C(=O)NC(C)c3cccc(C#N)n3)CC2)c(=O)[nH]c2ccc(F)cc12 (single isomer, unassigned) [Compound 2580] | 100.00
22 | Cc1cc(C#N)ccc1[C@H](C)NC(=O)Cc1c(O)c2cc(F)c(F)cc2[nH]c1=O [compound 1089] | 42.07
23 | Cc1c(CC(=O)N[C@H](C)c2ncc(C#N)cn2)c(=O)[nH]c2ccc(C#N)cc12 (single isomer, unassigned) [compound 2027] | 100.00
24 | C[C@H](NC(=O)C(F)(F)c1cc2cc(F)ccc2[nH]c1=O)c1nccc(C#N)n1 (single isomer, unassigned) [compound 2560] | 100.00
25 | Cc1cc([C@@H](C)NC(=O)Cc2c(C)c3c(C)c(F)ccc3[nH]c2=O)ncc1F (single isomer, unassigned) [compound 2076] | 46.49
26 | Cc1c(CC(=O)N[C@H](C)c2ccc(C#N)nn2)c(=O)[nH]c2ccc(F)cc12 [compound 1119] | 1.18
27 | Cc1c(C(F)(F)C(=O)N[C@@H](C)c2ncc(C#N)cc2F)c(=O)[nH]c2ccc(F)c(C#N)c12 (single isomer, unassigned) [compound 4836] | 0.15
28 | Cc1c(CC(=O)N[C@H](C)c2ccc(F)cn2)c(=O)[nH]c2cccc(F)c12 [compound 43] | 100.00

Same assay, conditions: ‡ Y125 value, not a Y75 value (125% activity relative to no compound); porcine ventricle myofibrils

Row | SMILES | Ventricular EC25
29 | Cc1c(CC(=O)N[C@@H](C)c2ncc(C#N)cn2)c(=O)[nH]c2ccc(C#N)cc12 (single isomer, unassigned) [compound 2028] | 100.00‡ μM
30 | Cc1c(C(F)(F)C(=O)N[C@@H](C)c2cccc(C#N)n2)c(=O)[nH]c2ccc(F)cc12 (single isomer, unassigned) [compound 2566] | 100.00‡ μM

The molecules below were run on Rabbit Psoas myofibrils (skeletal myosin ATPase) (assay: Myofibril ATPase assay, rabbit psoas (skeletal) myofibrils). Conditions: Y75 value (no ‡ mark); rabbit psoas myofibrils.
Format: biochemical
Summary of the method: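 Readout: A340 decline from NADH oxidation, PK/LDH-coupled to ADP release; kinetic reads over 75 min. Buffer: pCa (PIPES, CaCl2, EGTA), pH 7.0. Linear-regression slopes vs vehicle, 4PL fit; reported as concentration giving 75% (Y75) or 125% (Y125) of vehicle activity.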

Row | SMILES | Skeletal EC25 [µM]
31 | C[C@@H](NC(=O)C1(c2cc3c(F)c(F)ccc3[nH]c2=O)CC1)c1cnc(C#N)cn1 (single isomer, unassigned) [compound 4829] | 1.15
32 | C[C@H](NC(=O)Cc1cc2cc(F)ccc2[nH]c1=O)c1ccc(C#N)cn1 [compound 1126] | 100.00
33 | Cc1c(CC(=O)N[C@H](C)c2ncc(C#N)cc2F)c(=O)[nH]c2ccc(F)c(C#N)c12 [compound 31] | 0.06
34 | C[C@@H](NC(=O)Cc1cc2cc(F)c(F)cc2[nH]c1=O)c1ncc(C#N)cn1 (single isomer, unassigned) [compound 2035] | 5.70
35 | CCc1c(CC(=O)N[C@H](C)c2ncc(C#N)cn2)c(=O)[nH]c2ccc(F)c(C)c12 (single isomer, unassigned) [compound 2001] | 0.27
36 | Cc1cc(C#N)ccc1[C@H](C)NC(=O)Cc1c(O)c2cc(F)c(F)cc2[nH]c1=O [compound 1089] | 100.00
37 | Cc1c(CC(=O)N[C@H](C)c2ncc(C#N)cn2)c(=O)[nH]c2ccc(C#N)cc12 (single isomer, unassigned) [compound 2027] | 41.80
38 | Cc1cc([C@@H](C)NC(=O)Cc2c(C)c3c(C)c(F)ccc3[nH]c2=O)ncc1F (single isomer, unassigned) [compound 2076] | 2.56
39 | Cc1c(CC(=O)N[C@H](C)c2ccc(C#N)nn2)c(=O)[nH]c2ccc(F)cc12 [compound 1119] | 0.22
40 | Cc1c(C(F)(F)C(=O)N[C@@H](C)c2ncc(C#N)cc2F)c(=O)[nH]c2ccc(F)c(C#N)c12 (single isomer, unassigned) [compound 4836] | 0.02
41 | Cc1c(CC(=O)N[C@H](C)c2ccc(F)cn2)c(=O)[nH]c2cccc(F)c12 [compound 43] | 14.83

Same assay, conditions: ‡ Y125 value, not a Y75 value (125% activity relative to no compound); rabbit psoas myofibrils

Row | SMILES | Skeletal EC25
42 | Cc1c(CC(=O)N[C@@H](C)c2ncc(C#N)cn2)c(=O)[nH]c2ccc(C#N)cc12 (single isomer, unassigned) [compound 2028] | 73.42‡ μM
43 | Cc1c(C(F)(F)C(=O)N[C@@H](C)c2cccc(C#N)n2)c(=O)[nH]c2ccc(F)cc12 (single isomer, unassigned) [compound 2566] | 100.00‡ μM
44 | Cc1c(C2(C(=O)NC(C)c3cccc(C#N)n3)CC2)c(=O)[nH]c2ccc(F)cc12 (single isomer, unassigned) [Compound 2580] | 17.17‡ μM
45 | C[C@H](NC(=O)C(F)(F)c1cc2cc(F)ccc2[nH]c1=O)c1nccc(C#N)n1 (single isomer, unassigned) [compound 2560] | 61.98‡ μM
